Experimental data reported in article PMC11109052, “Metabolism characterization and toxicity of N-hydap, a marine candidate drug for lung cancer therapy by LC–MS method” (Natural Products and Bioprospecting, 2024).

Key:
CYP2C19 = test: DME activity ex vivo in MLMs and MKMs: CYP2C19 (4-OH-MP from MP); parameters: species or system mice; key to CYP2C19 Enzymatic activity: ↑: up-regulation; ↓: down-regulation; –: no change
Experimental: Mice were randomly divided into four groups, with eight animals in each group. The mice received oral pretreatment with N-hydap for 7 days at doses of 2, 5, and 10 mg/kg/day, which were considered as the low dose, medium dose, and high dose, respectively. Correspondingly, the control group received PBS. On the 8th day, the liver and kidneys were removed, and organs from eight mice per group were combined to prepare MLMs and MKMs using the detailed procedures above. Subsequently, we determined the activity of CYP and UGT enzymes by specific substrate metabolized with MLMs (0.5 mg/mL) and MKMs (0.2 mg/mL) in vitro. Specifically, the following selective substrates were used for the respective enzymes: PH (1 μM) for CYP1A2, DIC (1 μM) for CYP2C9, MP (90 μM) for CYP2C19, DM (1 μM) for CYP2D6, CZX (10 μM) for CYP2E1, Tes (1 μM) for CYP3A4, SN38 (1 μM) for UGT1A1, CACD (100 μM) for UGT1A3, Sero (20 μM) for UGT1A6, and Prop (1 μM) for UGT1A9. All substrates were dissolved in methanol or DMSO. The incubation procedure was carried out as mentioned above, and the reaction was terminated with VER (20 ng/mL) in ESI+ mode and CLP (200 ng/mL) in ESI− mode. In the ex vivo experiments, the activity of enzymes was measured by quantifying the production of various metabolites (nM/mg protein/min). The metabolites and their corresponding enzymes are as follows: APAP from PH, 4-OH-DIC from DIC, 4-OH-MP from MP, DXO from DM, 6-OH-CZX from CZX, 6-OH-Tes from Tes, SN38-G from SN38, CACD-G from CACD, Sero-G from Sero, Prop-G from Prop. The measurements were performed using multiple reaction monitoring (MRM) transitions, which are specific mass spectrometry transitions used for quantification. The optimized parameters for each metabolite, such as declustering potential and collision energy, were described in Supplementary Table 1. All experiments were conducted in triplicate, to ensure accuracy and reproducibility.

Cyp2b10 = test: Real-time PCR mRNA level after 7 days gavage: Cyp2b10; format: in vivo; conditions: mice, 2, 5, 10 mg/kg p.o. 7 days
Experimental: Mice were randomly divided into four groups, with eight animals in each group. The mice received oral pretreatment with N-hydap for 7 days at doses of 2, 5, and 10 mg/kg/day, which were considered as the low dose, medium dose, and high dose, respectively. Correspondingly, the control group received PBS. On the 8th day, the liver and kidneys were removed, and organs from eight mice per group were combined to prepare MLMs and MKMs using the detailed procedures above. Subsequently, we determined the activity of CYP and UGT enzymes by specific substrate metabolized with MLMs (0.5 mg/mL) and MKMs (0.2 mg/mL) in vitro. […] In the ex vivo experiments, the activity of enzymes was measured by quantifying the production of various metabolites (nM/mg protein/min). […] The measurements were performed using multiple reaction monitoring (MRM) transitions, which are specific mass spectrometry transitions used for quantification. […]
Total RNA from liver and kidney samples taken after 7 days of N-hydap gavage was extracted using the Animal Total RNA Isolation Kit (Foregene, Chengdu, Sichuan, China) following the manufacturer’s instructions. The concentrations of total RNA were determined by a nucleic acid concentration tester at 260/280 nm. […]

UGT1A3 = biological target: T1, UGT1A3 (Homo sapiens, UniProt P35503); test: Incubation with recombinant human UGT isoforms: UGT1A3; format: in vitro ADME; conditions: recombinant UGT 2 μg/mL
T1 construct: purchased Cypex (Scotland, UK)
T1 sequence (P35503 29-534): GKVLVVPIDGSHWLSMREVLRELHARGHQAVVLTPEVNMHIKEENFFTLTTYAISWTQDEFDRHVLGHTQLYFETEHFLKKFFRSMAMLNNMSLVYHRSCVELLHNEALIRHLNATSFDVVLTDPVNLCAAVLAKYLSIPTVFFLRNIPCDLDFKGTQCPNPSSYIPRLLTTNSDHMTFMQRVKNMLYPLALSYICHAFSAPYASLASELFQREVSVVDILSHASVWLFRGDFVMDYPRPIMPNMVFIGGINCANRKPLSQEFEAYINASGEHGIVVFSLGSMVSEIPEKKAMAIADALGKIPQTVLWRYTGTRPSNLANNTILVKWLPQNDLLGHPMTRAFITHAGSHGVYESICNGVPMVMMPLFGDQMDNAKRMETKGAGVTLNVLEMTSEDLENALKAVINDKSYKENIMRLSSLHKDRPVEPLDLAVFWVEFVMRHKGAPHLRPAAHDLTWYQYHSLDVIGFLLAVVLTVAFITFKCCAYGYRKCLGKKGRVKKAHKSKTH
Experimental: Incubation of N-hydap (2.5 μM) with eight recombinant human CYP enzymes (CYP1A2, CYP2B6, CYP2C9, CYP2C19, CYP2D6, CYP3A4, CYP4A11 and CYP4F2) at three enzyme concentrations (2, 4, and 20 μg/mL) was conducted following the same procedure as described above for microsomes. Subsequently, incubation with N-hydap (1, 2.5, and 6 μM) and twelve recombinant human UGT isoforms (UGT1A1, UGT1A3, UGT1A4, UGT1A6, UGT1A7, UGT1A8, UGT1A9, UGT1A10, UGT2B4, UGT2B7, UGT2B15 and UGT2B17) was performed, with the enzyme concentration used at 2 μg/mL. All reactions were carried out in triplicate.

## CC1CCC2C(C=CC(C)C2C(=O)c2c(O)c(C3(O)CCC(O)C4OC43)cn(O)c2=O)C1 (stereo not drawn) [N-hydap, N-Hydroxyapiosporamide]
CYP2C19; Kidney
  CYP2C19 Enzymatic activity: –
CYP2C19; Liver
  CYP2C19 Enzymatic activity: ↓
CYP2C19; liver microsomes of mice pretreated 7 days p.o.
  reduction of formation rate of 4-OH-MP vs control: 33%
Cyp2b10; kidneys
  mRNA levels of Cyp2b10: slight reduction
Cyp2b10; liver
  decrease of mRNA levels of Cyp2b10: 35%
UGT1A3
  share of N-hydap glucuronidation by UGT1A3: over 80%
